Like-named read-outs stand apart in the source and are kept apart here.
What was measured:
[1] = target: T1, human D2short receptor (Homo sapiens, UniProt P14416); assay: radioligand binding with [^3H]spiperone, D2short; conditions: [^3H]spiperone, CHO membranes, mean of 2 to 4 experiments; read-out: Ki D2sh
T1 construct: expressed in transfected cells; host or cells: Chinese hamster ovary (CHO) cells, membranes
Method: (§1) For the determination of binding affinity to the receptors of the dopamine D2 family membranes were established carrying the human D2long, D2short, D3 or D4.4 receptor subtype expressed in Chinese hamster ovary cell lines. In principle, the binding experiments started when incubating an appropriate amount of membrane with the radioligand [^3H]spiperone and the particular test compounds diluted in a wide range of different concentrations from subnanomolar up to micromolar.

[2] = target: T2, 5-HT1A receptor (Sus scrofa, UniProt A0A4X1UTF5); assay: radioligand binding, porcine cortical membranes, [^3H]8-OH-DPAT and [^3H]WAY 100635; conditions: porcine cortical membranes
T2 construct: membrane preparations from porcine cortical material; from tissue; host or cells: porcine cerebral cortex membranes
T2 sequence (A0A4X1UTF5 1-422): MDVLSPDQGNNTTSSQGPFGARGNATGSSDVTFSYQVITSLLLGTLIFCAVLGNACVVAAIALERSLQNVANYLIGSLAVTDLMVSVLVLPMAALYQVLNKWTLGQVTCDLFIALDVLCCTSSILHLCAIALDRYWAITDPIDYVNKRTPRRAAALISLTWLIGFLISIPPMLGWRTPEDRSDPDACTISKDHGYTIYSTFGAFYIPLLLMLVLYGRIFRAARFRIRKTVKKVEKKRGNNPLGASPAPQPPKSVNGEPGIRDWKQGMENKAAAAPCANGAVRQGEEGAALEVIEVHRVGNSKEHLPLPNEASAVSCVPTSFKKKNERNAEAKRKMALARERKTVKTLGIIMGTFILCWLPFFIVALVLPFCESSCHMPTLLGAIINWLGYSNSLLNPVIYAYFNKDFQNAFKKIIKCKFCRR

[3] = target: T3, human D3 receptor (Homo sapiens, UniProt P35462); assay: radioligand binding with [^3H]spiperone, D3; conditions: [^3H]spiperone, CHO membranes, mean of 2 to 4 experiments
T3 construct: expressed in transfected cells; host or cells: Chinese hamster ovary (CHO) cells, membranes
T3 sequence (P35462 whole entry): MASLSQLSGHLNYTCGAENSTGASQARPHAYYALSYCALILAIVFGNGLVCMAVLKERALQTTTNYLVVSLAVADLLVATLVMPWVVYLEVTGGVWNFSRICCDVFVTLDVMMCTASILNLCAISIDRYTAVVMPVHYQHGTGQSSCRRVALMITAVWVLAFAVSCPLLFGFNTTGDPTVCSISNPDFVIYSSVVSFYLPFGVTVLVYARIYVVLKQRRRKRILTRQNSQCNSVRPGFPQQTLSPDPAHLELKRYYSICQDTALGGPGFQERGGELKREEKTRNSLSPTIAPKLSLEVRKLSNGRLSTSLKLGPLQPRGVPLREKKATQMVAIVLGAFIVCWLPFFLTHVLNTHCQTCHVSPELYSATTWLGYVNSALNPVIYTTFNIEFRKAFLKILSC
Method: as §1

[4] = target: T4, 5-HT2 receptor (Sus scrofa, UniProt P50129); assay: radioligand binding, porcine cortical membranes, [^3H]ketanserin; conditions: porcine cortical membranes, [^3H]ketanserin
T4 construct: membrane preparations from porcine cortical material; from tissue; host or cells: porcine cerebral cortex membranes
T4 sequence (P50129 whole entry): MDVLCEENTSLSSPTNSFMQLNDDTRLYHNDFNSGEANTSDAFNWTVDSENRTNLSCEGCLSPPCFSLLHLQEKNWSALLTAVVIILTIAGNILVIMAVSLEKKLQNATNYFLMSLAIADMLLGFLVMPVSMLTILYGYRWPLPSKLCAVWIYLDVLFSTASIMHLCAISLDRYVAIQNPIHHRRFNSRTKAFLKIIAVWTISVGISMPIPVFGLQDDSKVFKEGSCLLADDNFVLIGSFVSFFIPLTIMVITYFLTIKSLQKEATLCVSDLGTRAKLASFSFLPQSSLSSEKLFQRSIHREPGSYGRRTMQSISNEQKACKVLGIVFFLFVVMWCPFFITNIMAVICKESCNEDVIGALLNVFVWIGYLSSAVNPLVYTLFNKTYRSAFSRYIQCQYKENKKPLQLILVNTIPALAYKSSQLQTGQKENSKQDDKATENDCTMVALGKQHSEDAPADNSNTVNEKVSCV

[5] = target: T5, human D4.4 receptor (Homo sapiens, UniProt P21917); assay: radioligand binding with [^3H]spiperone, D4.4; conditions: [^3H]spiperone, CHO membranes, mean of 2 to 4 experiments
T5 construct: expressed in transfected cells; host or cells: Chinese hamster ovary (CHO) cells, membranes
T5 sequence (P21917 1-419): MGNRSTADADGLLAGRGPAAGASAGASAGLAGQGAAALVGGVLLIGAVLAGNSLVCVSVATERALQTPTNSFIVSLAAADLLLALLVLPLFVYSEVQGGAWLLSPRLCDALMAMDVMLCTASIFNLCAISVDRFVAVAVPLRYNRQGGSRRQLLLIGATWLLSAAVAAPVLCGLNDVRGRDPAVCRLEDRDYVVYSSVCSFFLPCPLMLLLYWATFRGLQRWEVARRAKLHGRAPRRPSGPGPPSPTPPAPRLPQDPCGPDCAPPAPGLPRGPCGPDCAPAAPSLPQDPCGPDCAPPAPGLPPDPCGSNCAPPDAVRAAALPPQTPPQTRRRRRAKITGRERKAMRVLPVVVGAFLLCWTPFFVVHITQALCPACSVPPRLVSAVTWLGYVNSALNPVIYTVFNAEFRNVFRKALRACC
Method: as §1

[6] = target: dopamine D2short receptor (Homo sapiens, UniProt P14416); assay: [^35S]GTPγS-incorporation assay, intrinsic activity
Sequence of dopamine D2short receptor (P14416 1-414 isoform P14416-2): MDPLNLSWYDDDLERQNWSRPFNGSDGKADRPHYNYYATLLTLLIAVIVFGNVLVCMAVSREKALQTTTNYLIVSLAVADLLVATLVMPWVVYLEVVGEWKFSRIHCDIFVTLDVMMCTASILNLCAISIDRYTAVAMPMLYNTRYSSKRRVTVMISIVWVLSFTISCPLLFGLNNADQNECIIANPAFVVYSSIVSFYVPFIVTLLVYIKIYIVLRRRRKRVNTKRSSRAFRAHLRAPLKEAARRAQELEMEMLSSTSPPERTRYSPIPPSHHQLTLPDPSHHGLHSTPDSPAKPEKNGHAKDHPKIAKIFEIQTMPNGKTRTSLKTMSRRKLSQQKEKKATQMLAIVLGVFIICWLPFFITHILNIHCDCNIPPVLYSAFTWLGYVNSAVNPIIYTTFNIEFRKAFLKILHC

[7] = target: T6, human D2long receptor (Homo sapiens, UniProt P14416); assay: radioligand binding with [^3H]spiperone, D2long; conditions: [^3H]spiperone, CHO membranes, mean of 2 to 4 experiments; read-out: Ki D2lo
T6 construct: expressed in transfected cells; host or cells: Chinese hamster ovary (CHO) cells, membranes
T6 sequence (P14416 whole entry): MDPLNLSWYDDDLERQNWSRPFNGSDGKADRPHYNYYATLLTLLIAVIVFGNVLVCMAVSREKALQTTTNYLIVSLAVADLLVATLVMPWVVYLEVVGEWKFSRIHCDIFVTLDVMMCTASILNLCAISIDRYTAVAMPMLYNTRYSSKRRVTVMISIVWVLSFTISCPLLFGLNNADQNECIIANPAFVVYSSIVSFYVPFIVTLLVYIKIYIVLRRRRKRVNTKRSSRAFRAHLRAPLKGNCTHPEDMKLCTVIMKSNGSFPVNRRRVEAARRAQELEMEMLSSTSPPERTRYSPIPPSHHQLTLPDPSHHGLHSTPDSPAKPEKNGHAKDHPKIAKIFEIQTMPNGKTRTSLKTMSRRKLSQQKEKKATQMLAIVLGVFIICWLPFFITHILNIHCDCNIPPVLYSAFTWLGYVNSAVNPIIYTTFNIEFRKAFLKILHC
Method: as §1

[8] = read-out: D2short: [^35S]GTPγS intrinsic activity
[9] = read-out: D2short: [^35S]GTPγS intrinsic activity, % activity of quinpirol

T1 sequence (P14416 1-414 isoform P14416-2): as the sequence (P14416 1-414 isoform P14416-2) above

SMILES	Ki [1]	Ki [2]	melting point	Ki [3]	Ki [4]	Ki [5]	Emax [6, 8]	Ki [7]	Emax [6, 9]
COc1ccccc1N1CCN(CCCCOc2nn3ccccc3c2C=O)CC1 [Example E5, 2-[4-[4-(2-Methoxyphenyl)piperazin-1-yl]butoxy]pyrazolo[1,5-a]pyridine-3-carbaldehyde]	< 30 nM	< 30 nM	101 °C	< 30 nM	301 to 3000 nM	< 30 nM	15 to 40%	< 30 nM	–
O=Cc1c(OCCCCN2CCN(c3ccccc3Cl)CC2)nn2ccccc12 [Example E6, 2-[4-[4-(2-Chlorophenyl)piperazin-1-yl]butoxy]pyrazolo[1,5-a]pyridine-3-carbaldehyde]	30 to 300 nM	< 30 nM	104 °C	< 30 nM	301 to 3000 nM	30 to 300 nM	15 to 40%	< 30 nM	–
Clc1cccc(N2CCN(CCCCOc3cccn4nccc34)CC2)c1Cl [Example E7, 4-[4-[4-(2,3-Dichlorophenyl)piperazin-1-yl]butoxy]pyrazolo[1,5-a]pyridine]	< 30 nM	30 to 300 nM	91 °C	< 30 nM	301 to 3000 nM	< 30 nM	–	< 30 nM	< 15%
COc1ccccc1N1CCN(CCCCOc2cccn3nccc23)CC1 [Example E8, 4-[4-[4-(2-Methoxyphenyl)piperazin-1-yl]butoxy]pyrazolo[1,5-a]pyridine]	< 30 nM	< 30 nM	74 °C	< 30 nM	301 to 3000 nM	< 30 nM	–	< 30 nM	< 15%
Clc1ccccc1N1CCN(CCCCOc2cccn3nccc23)CC1 [Example E9, 4-[4-[4-(2-Chlorophenyl)piperazin-1-yl]butoxy]pyrazolo[1,5-a]pyridine]	< 30 nM	< 30 nM	88 °C	< 30 nM	301 to 3000 nM	< 30 nM	< 15%	< 30 nM	–
O=Cc1cnn2cccc(OCCCCN3CCN(c4cccc(Cl)c4Cl)CC3)c12 [Example E10, 4-[4-[4-(2,3-Dichlorophenyl)piperazin-1-yl]butoxy]pyrazolo[1,5-a]pyridine-3-carbaldehyde]	< 30 nM	30 to 300 nM	128 °C	< 30 nM	30 to 300 nM	30 to 300 nM	15 to 40%	< 30 nM	–
COc1ccccc1N1CCN(CCCCOc2cccn3ncc(C=O)c23)CC1 [Example E11, 4-[4-[4-(2-Methoxyphenyl)piperazin-1-yl]butoxy]pyrazolo[1,5-a]pyridine-3-carbaldehyde]	< 30 nM	< 30 nM	139 °C	30 to 300 nM	301 to 3000 nM	< 30 nM	–	< 30 nM	< 15%
O=Cc1cnn2cccc(OCCCCN3CCN(c4ccccc4Cl)CC3)c12 [Example E12, 4-[4-[4-(2-Chlorophenyl)piperazin-1-yl]butoxy]pyrazolo[1,5-a]pyridine-3-carbaldehyde]	< 30 nM	< 30 nM	125 °C	30 to 300 nM	301 to 3000 nM	< 30 nM	15 to 40%	< 30 nM	–
Clc1cccc(N2CCN(CCCOCc3ccn4nccc4c3)CC2)c1Cl [Example E13, 5-[3-[4-(2,3-Dichlorophenyl)piperazin-1-yl]propoxymethyl]pyrazolo[1,5-a]pyridine]	< 30 nM	30 to 300 nM	69 °C	< 30 nM	30 to 300 nM	30 to 300 nM	< 15%	< 30 nM	–
O=Cc1cnn2ccc(COCCCN3CCN(c4cccc(Cl)c4Cl)CC3)cc12 [Example E14, 5-[3-[4-(2,3-Dichlorophenyl)piperazin-1-yl]propoxymethyl]pyrazolo[1,5-a]pyridine-3-carbaldehyde]	< 30 nM	< 30 nM	90 °C	< 30 nM	30 to 300 nM	30 to 300 nM	–	< 30 nM	15 to 40%
Clc1cccc(N2CCN(CCCCOc3ccn4nccc4c3)CC2)c1Cl [Example E15, 5-[4-[4-(2,3-Dichlorophenyl)piperazin-1-yl]butoxy]pyrazolo[1,5-a]pyridine]	30 to 300 nM	30 to 300 nM	105 °C	< 30 nM	301 to 3000 nM	30 to 300 nM	–	30 to 300 nM	15 to 40%
Clc1ccccc1N1CCN(CCCCOc2ccn3nccc3c2)CC1 [Example E17, 5-[4-[4-(2-Chlorophenyl)piperazin-1-yl]butoxy]pyrazolo[1,5-a]pyridine]	< 30 nM	30 to 300 nM	163 °C	< 30 nM	301 to 3000 nM	30 to 300 nM	–	< 30 nM	15 to 40%
COc1ccc(N2CCN(CCCCOc3ccn4nccc4c3)CC2)cc1 [Example E18]	301 to 3000 nM	30 to 300 nM	111 °C	30 to 300 nM	301 to 3000 nM	301 to 3000 nM	–	> 3000 nM	< 15%
Clc1ccc(N2CCN(CCCCOc3ccn4nccc4c3)CC2)cc1 [Example E19, 5-[4-[4-(4-Chlorophenyl)piperazin-1-yl]butoxy]pyrazolo[1,5-a]pyridine]	30 to 300 nM	30 to 300 nM	125 °C	30 to 300 nM	301 to 3000 nM	30 to 300 nM	–	30 to 300 nM	15 to 40%
